# Results published in patent US4391828A, “Dibutylorthobenzylmethoxybenzenes and dibutylorthocinnamylmethoxybenzenes as mosquito larvae growth inhibitors” (The United States of America as represented by the …, priority 1982, dated 1983).
# Assays:
# Test in all cases: Growth-inhibition test on mosquito larvae
# [1] = test system: Anopheles quadrimaculatus; format: in vivo, Anopheles quadrimaculatus (malaria mosquito); conditions: late third- and early fourth-stage larvae, 7 days, corrected by Abbott's formula; for LC50: 168 h, read-out: LC-50 (concentration that would prevent and/or retard the growth in 50% of the treated larvae)
# Procedure: (§1) Twenty-five late third-and early fourth-stage mosquito larve were placed in a 500-ml glass jar (9X8.5 cm diam) containing 100 ml of well water, 0.05g ground hog supplement for larval food, and a known amount of the test compound in not more than 1.0ml acetone. The jars were covered with cloth netting and held in constant temperature incubators at 26.7°-28.9° C. and 65-75% relative humidity; a low level of illumination (ca. 0.5 foot candles inside the incubators) was maintained during nonworking hours. After seven days, the jars were examined for the number of dead pupae, the number of adults that were dead or unable to complete eclosion and the number of exuvia. […] Tests were replicated for at least one concentration and a control was set with each test series. Several concentrations of each compound were tested so that a dose-response relationship could be established.
# (§2) The effectiveness of the compound in inhibiting growth was determined by adding the numbers of dead larvae and pupae and the numbers of adults that were dead, unable to complete eclosion, and malformed. This sum was corrected by Abbott's formula (to adjust for the number of larvae or pupae which would die naturally). The results are expressed as LC 50 or LC 90, i.e., the concentration of growth inhibitor in ppm that would prevent and/or retard the growth in 50% or 90%, respectively, of the treated larvae.
# Aedes taeniorhynchos = format: in vivo; conditions: late third- and early fourth-stage larvae, 7 days, corrected by Abbott's formula
# Procedure: as §1, §2
# Anopheles albimanus = format: in vivo; conditions: late third- and early fourth-stage larvae, 7 days, corrected by Abbott's formula
# Procedure: as §1, §2
# Aedes aegypti = format: in vivo, Aedes aegypti (yellow fever mosquito); conditions: late third- and early fourth-stage larvae, 7 days, corrected by Abbott's formula
# Procedure: as §1, §2
Structure (SMILES),LC50 [1] [µg/mL],LC-90 (concentration that would prevent and/or retard the growth in 90% of the treated larvae) [1] [ppm],other results
"COc1c(Cc2ccccc2)cc(C(C)(C)C)cc1C(C)(C)C [A, 2,4-Bis(1,1-dimethylethyl)-6-(phenylmethyl)methoxybenzene]",0.065,0.092,LC-50 (Aedes taeniorhynchos): 0.026 ppm; LC-90 (Aedes taeniorhynchos): 0.164 ppm; LC-50 (Anopheles albimanus): 0.014 ppm; LC-90 (Anopheles albimanus): 0.025 ppm
COc1c(C(C)c2ccccc2)cc(C(C)(C)C)cc1C(C)(C)C (stereo not drawn) [A-III],,> 1.0,
CCOc1c(C(C)c2ccccc2)cc(C(C)(C)C)cc1C(C)(C)C (stereo not drawn) [A-II],,> 1.0,
CC(C)(C)c1cc(Cc2ccccc2)c(O)c(C(C)(C)C)c1 [A-I],0.2,1.37,
CCOc1c(Cc2ccc(OC)cc2)cc(C(C)(C)C)cc1C(C)(C)C [B-II],0.074,0.285,
COc1ccc(C(C)c2cc(C(C)(C)C)cc(C(C)(C)C)c2OC)cc1 (stereo not drawn) [B-IV],0.242,0.556,
CCOc1c(C(C)c2ccc(OC)cc2)cc(C(C)(C)C)cc1C(C)(C)C (stereo not drawn) [B-V],,> 1.0,
"COc1c(CC=Cc2ccccc2)cc(C(C)(C)C)cc1C(C)(C)C [C, 2,4-Bis(1,1-dimethylethyl)-6-(3-phenyl-2-propenyl)methoxybenzene]",0.026,0.089,
CCOc1c(CC=Cc2ccccc2)cc(C(C)(C)C)cc1C(C)(C)C [C-II],0.189,1.042,
CC(C)(C)c1cc(CC=Cc2ccccc2)c(O)c(C(C)(C)C)c1 [C-I],0.152,0.399,
"COc1ccc(Cc2cc(C(C)(C)C)cc(C(C)(C)C)c2OC)cc1 [Compound B, 2,4-Bis (1,1-dimethylethyl)-6-[(4-methoxyphenyl)methyl]-methoxybenzene]",,0.032,LC-50 (Aedes taeniorhynchos): 0.009 ppm; LC-90 (Aedes taeniorhynchos): 0.023 ppm; LC-50 (Anopheles albimanus): .005 ppm; LC-90 (Anopheles albimanus): 0.009 ppm; LC-50 (Aedes aegypti): 0.005 ppm; LC-90 (Aedes aegypti): 0.099 ppm
"COc1ccc(Cc2cc(C(C)(C)C)cc(C(C)(C)C)c2O)cc1 [Compound B-I, 2,4-bis(1,1-dimethylethyl)-6-[(4-methoxyphenyl)methyl]phenol]",0.12,0.225,
